Measured values reported in PubChem BioAssay (NCI).
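Compound exposure: 48 hours, 5 concentrations, 96-well plates. GI50 marks 50% less growth. The concentration for full growth arrest is given as TGI.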

Columns and labels:
Test in all cases: inhibition of tumour cell growth, NCI panel, 48 h
[1] = test system: K-562 leukemia
[2] = test system: SK-MEL-28 melanoma
[3] = test system: HL-60(TB) leukemia
[4] = test system: ACHN renal
[5] = test system: MDA-N
[6] = test system: OVCAR-5 ovarian
[7] = test system: HCC-2998 colon
[8] = test system: SF-295 CNS
[9] = test system: SK-MEL-5 melanoma
[10] = test system: A549 NSCLC
[11] = test system: LOX IMVI melanoma
[12] = test system: SW-620 colon
[13] = test system: U251 CNS
[14] = test system: SNB-19 CNS
[15] = test system: MALME-3M melanoma
[16] = test system: PC-3 prostate
[17] = test system: KM12 colon
[18] = test system: TK-10 renal
[19] = test system: MDA-MB-435
[20] = test system: SK-OV-3 ovarian
[21] = test system: NCI-H522 lung
[22] = test system: NCI-H226 lung
[23] = test system: HCT-15 colon
[24] = test system: HOP-92 NSCLC
[25] = test system: HT29 colon
[26] = test system: MDA-MB-231 breast
[27] = test system: SNB-75 CNS
[28] = test system: SF-268 CNS
[29] = test system: 786-0 renal
[30] = test system: HOP-62 NSCLC
[31] = test system: NCI-H23 lung
[32] = test system: NCI/ADR-RES ovarian
[33] = test system: OVCAR-8 ovarian
[34] = test system: HS 578T breast
[35] = test system: CCRF-CEM leukemia
[36] = test system: IGROV1 ovarian
[37] = test system: NCI-H460 lung
[38] = test system: OVCAR-4 ovarian
[39] = test system: OVCAR-3 ovarian
[40] = test system: T-47D breast
[41] = test system: MOLT-4 leukemia
[42] = test system: UO-31 renal
[43] = test system: M14 melanoma
[44] = test system: DU-145 prostate
[45] = test system: COLO 205 colon
[46] = test system: UACC-62 melanoma
[47] = test system: A498 renal
[48] = test system: SN12C renal
[49] = test system: SK-MEL-2 melanoma
[50] = test system: CAKI-1 renal
[51] = test system: SR leukemia
[52] = test system: EKVX NSCLC
[53] = test system: HCT-116 colon
[54] = test system: SF-539 CNS
[55] = test system: RXF 393 renal
[56] = test system: UACC-257 melanoma

For CCCc1cc2c(cc1O)CC[C@@H]1[C@@H]2CC[C@]2(C)[C@@H](O)CC[C@@H]12, the TGI [1] was 13.6 µM, the TGI [2] was 25.8 µM and the TGI [3] was 29.7 µM. For the same compound, the TGI [4] was 25.6 µM, the TGI [5] was 6.05 µM and the TGI [6] was 34.7 µM. The TGI [7] was 33 µM, the TGI [8] was 17.8 µM and the TGI [9] was 22.4 µM. For the same compound, the TGI [10] was 22.9 µM, the TGI [11] was 24 µM and the TGI [12] was 17.2 µM. For the same compound, the TGI [13] was 20.3 µM, the TGI [14] was 26.3 µM and the TGI [15] was 27.9 µM. The TGI [16] was 34.5 µM, the TGI [17] was 22.6 µM and the TGI [18] was 30.1 µM. For the same compound, the GI50 [19] was 2190 nM, the TGI [19] was 5.1 µM and the TGI [20] was 29.1 µM. The TGI [21] was 24.9 µM, the TGI [22] was 27.5 µM and the TGI [23] was 18.1 µM. For the same compound, the TGI [24] was 33.6 µM, the TGI [25] was 31.1 µM and the TGI [26] was 40.8 µM. For the same compound, the TGI [27] was 29.3 µM, the TGI [28] was 28.6 µM and the TGI [29] was 26.6 µM. It also gave a GI50 [30] of 16 µM, a TGI [30] of 34.2 µM and a TGI [31] of 29.2 µM. For the same compound, the TGI [32] was 27.1 µM, the TGI [33] was 29.1 µM and the TGI [34] was 32.3 µM. For the same compound, the TGI [35] was 20.9 µM, the TGI [36] was 30.2 µM and the TGI [37] was 24.4 µM. The TGI [38] was 32.7 µM, the TGI [39] was 24.4 µM and the TGI [40] was 32.6 µM. It also gave a TGI [41] of 20.4 µM, a TGI [42] of 24.6 µM and a TGI [43] of 23 µM. It also gave a GI50 [44] of 18.8 µM, a TGI [44] of 32.8 µM and a TGI [45] of 34.5 µM. For the same compound, the GI50 [46] was 6.02 µM, the TGI [46] was 19.4 µM and the TGI [47] was 32.3 µM. The TGI [48] was 24.7 µM, the TGI [49] was 30.2 µM and the TGI [50] was 24.8 µM. For the same compound, the TGI [51] was 13.4 µM, the TGI [52] was 26.2 µM and the GI50 [53] was 6.54 µM. It also gave a TGI [53] of 19.8 µM, a TGI [54] of 24.4 µM and a TGI [55] of 22.1 µM. The TGI [56] was 25.8 µM.
